Where a name gives a salt, the structure may show the parent alone.
Target: BACE1 enzyme (Homo sapiens (Human), UniProt P56817)
Assay: BACE1 efficacy assay (FRET-based, commercial BACE1 kit)
Type: biochemical
Conditions: test compound 10 μM, 3 nM enzyme, 250 nM substrate
Protocol: The efficacy assay was performed as a FRET-based assay using a commercially available BACE1 kit (Life Technologies, P2985). 2 μl test compound at 10 μM (final concentration) and 15 μl BACE1 enzyme from the kit (final concentration 3 nM) were preincubated for 15 minutes at room temperature before addition of 15 μl of substrate from the kit (250 nM final concentration) and incubated for additional 90 minutes at room temperature. The assay plate was subsequently read in a Pherastar (Ex540/Em590). […] The efficacy of the test compounds was evaluated at 10 μM (final concentration) and defined as the percent inhibition of the enzyme activity using the equation % inhibition=100%−normalized enzyme activity in percent.

Chain of BACE1 enzyme (P56817 46-501): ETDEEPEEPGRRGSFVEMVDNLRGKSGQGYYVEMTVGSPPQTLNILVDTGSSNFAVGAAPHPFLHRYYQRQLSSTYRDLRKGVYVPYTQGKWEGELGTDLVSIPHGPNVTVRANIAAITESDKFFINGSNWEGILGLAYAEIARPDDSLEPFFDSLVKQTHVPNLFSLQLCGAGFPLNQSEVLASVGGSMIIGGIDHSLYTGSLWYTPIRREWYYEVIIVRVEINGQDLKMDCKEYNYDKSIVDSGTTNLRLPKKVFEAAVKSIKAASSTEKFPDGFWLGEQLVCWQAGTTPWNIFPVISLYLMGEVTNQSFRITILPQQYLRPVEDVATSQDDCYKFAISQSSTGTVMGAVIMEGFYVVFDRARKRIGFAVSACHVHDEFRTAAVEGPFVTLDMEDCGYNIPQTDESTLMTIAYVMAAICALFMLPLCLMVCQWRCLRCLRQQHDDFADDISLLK

Structure (SMILES): C[C@]1(F)CC(F)(F)[C@@](C)(c2cc(NC(=O)c3ccc(C(F)(F)F)cn3)ccc2F)N=C1N [Compound 11, N-(3-((2R,5S)-6-amino-3,3,5-trifluoro-2,5-dimethyl-2,3,4,5-tetrahydropyridin-2-yl)-4-fluorophenyl)-5-(trifluoromethyl)picolinamide]
- inhibition at 10 µM: 99%

Structure (SMILES): C[C@@]1(F)CC(F)(F)[C@@](C)(c2cc(NC(=O)c3nc(CF)co3)ccc2F)N=C1N [Compound 30, N-(3-((2R,5R)-6-amino-3,3,5-trifluoro-2,5-dimethyl-2,3,4,5-tetrahydropyridin-2-yl)-4-fluorophenyl)-4-(fluoromethyl)oxazole-2-carboxamide]
- inhibition at 10 µM: 103%

Structure (SMILES): C[C@]1(F)CC(F)(F)[C@@](C)(c2cc(NC(=O)c3coc(C(F)F)n3)ccc2F)N=C1N [Compound 13, N-(3-((2R,5S)-6-amino-3,3,5-trifluoro-2,5-dimethyl-2,3,4,5-tetrahydropyridin-2-yl)-4-fluorophenyl)-2-(difluoromethyl)oxazole-4-carboxamide]
- inhibition at 10 µM: 99%

Structure (SMILES): C[C@@]1(F)CC(F)(F)[C@@](C)(c2cc(NC(=O)c3coc(C(F)F)n3)ccc2F)N=C1N [Compound 29, N-(3-((2R,5R)-6-amino-3,3,5-trifluoro-2,5-dimethyl-2,3,4,5-tetrahydropyridin-2-yl)-4-fluorophenyl)-2-(difluoromethyl)oxazole-4-carboxamide]
- inhibition at 10 µM: 101%

Structure (SMILES): C[C@@]1(F)CC(F)(F)[C@@](C)(c2cc(NC(=O)c3nc(CF)cs3)ccc2F)N=C1N [Compound 31, N-(3-((2R,5R)-6-amino-3,3,5-trifluoro-2,5-dimethyl-2,3,4,5-tetrahydropyridin-2-yl)-4-fluorophenyl)-4-(fluoromethyl)thiazole-2-carboxamide]
- inhibition at 10 µM: 102%

Structure (SMILES): Cc1ccc(C(=O)Nc2ccc(F)c([C@@]3(C)N=C(N)[C@](C)(F)CC3(F)F)c2)o1 [Compound 41, N-(3-((2R,5R)-6-amino-3,3,5-trifluoro-2,5-dimethyl-2,3,4,5-tetrahydropyridin-2-yl)-4-fluorophenyl)-5-methylfuran-2-carboxamide]
- inhibition at 10 µM: 93%

Structure (SMILES): C[C@]1(F)CC(F)(F)[C@@](C)(c2cc(NC(=O)c3nc(CF)co3)ccc2F)N=C1N [Compound 14, N-(3-((2R,5S)-6-amino-3,3,5-trifluoro-2,5-dimethyl-2,3,4,5-tetrahydropyridin-2-yl)-4-fluorophenyl)-4-(fluoromethyl)oxazole-2-carboxamide]
- inhibition at 10 µM: 102%

Structure (SMILES): Cc1cn(C)c(C(=O)Nc2ccc(F)c([C@@]3(C)N=C(N)[C@](C)(F)CC3(F)F)c2)n1 [Compound 38, N-(3-((2R,5R)-6-amino-3,3,5-trifluoro-2,5-dimethyl-2,3,4,5-tetrahydropyridin-2-yl)-4-fluorophenyl)-1,4-dimethyl-1H-imidazole-2-carboxamide]
- inhibition at 10 µM: 98%

Structure (SMILES): C[C@]1(F)CC(F)(F)[C@@](C)(c2cc(NC(=O)c3ccc(C#N)cn3)ccc2F)N=C1N [Compound 4, N-(3-((2R,5S)-6-amino-3,3,5-trifluoro-2,5-dimethyl-2,3,4,5-tetrahydropyridin-2-yl)-4-fluorophenyl)-5-cyanopicolinamide]
- inhibition at 10 µM: 99%

Structure (SMILES): C[C@@]1(F)CC(F)(F)[C@@](C)(c2cc(NC(=O)c3ccc(F)cn3)ccc2F)N=C1N [Compound 2, N-(3-((2R,5R)-6-amino-3,3,5-trifluoro-2,5-dimethyl-2,3,4,5-tetrahydropyridin-2-yl)-4-fluorophenyl)-5-fluoropicolinamide]
- inhibition at 10 µM: 100%

Structure (SMILES): Cc1csc(C(=O)Nc2ccc(F)c([C@@]3(C)N=C(N)[C@](C)(F)CC3(F)F)c2)n1 [Compound 27, N-(3-((2R,5R)-6-amino-3,3,5-trifluoro-2,5-dimethyl-2,3,4,5-tetrahydropyridin-2-yl)-4-fluorophenyl)-4-methylthiazole-2-carboxamide]
- inhibition at 10 µM: 98%

Structure (SMILES): Cc1cc(C(=O)Nc2ccc(F)c([C@@]3(C)N=C(N)[C@](C)(F)CC3(F)F)c2)on1 [Compound 40, N-(3-((2R,5R)-6-amino-3,3,5-trifluoro-2,5-dimethyl-2,3,4,5-tetrahydropyridin-2-yl)-4-fluorophenyl)-3-methylisoxazole-5-carboxamide]
- inhibition at 10 µM: 69%

Structure (SMILES): C[C@]1(F)CC(F)(F)[C@@](C)(c2cc(NC(=O)c3nc(CF)cs3)ccc2F)N=C1N [Compound 15, N-(3-((2R,5S)-6-amino-3,3,5-trifluoro-2,5-dimethyl-2,3,4,5-tetrahydropyridin-2-yl)-4-fluorophenyl)-4-(fluoromethyl)thiazole-2-carboxamide]
- inhibition at 10 µM: 101%

Structure (SMILES): Cc1nc(C(=O)Nc2ccc(F)c([C@@]3(C)N=C(N)[C@@](C)(F)CC3(F)F)c2)c(C)o1 [Compound 47, N-(3-((2R,5S)-6-amino-3,3,5-trifluoro-2,5-dimethyl-2,3,4,5-tetrahydropyridin-2-yl)-4 fluorophenyl)-2,5-dimethyloxazole-4-carboxamide]
- inhibition at 10 µM: 102%

Structure (SMILES): COc1cnc(C(=O)Nc2ccc(F)c([C@@]3(C)N=C(N)[C@](C)(F)CC3(F)F)c2)nc1 [Compound 26, N-(3-((2R,5R)-6-amino-3,3,5-trifluoro-2,5-dimethyl-2,3,4,5-tetrahydropyridin-2-yl)-4-fluorophenyl)-5-methoxypyrimidine-2-carboxamide]
- inhibition at 10 µM: 102%

Structure (SMILES): Cc1ncc(C(=O)Nc2ccc(F)c([C@@]3(C)N=C(N)[C@](C)(F)CC3(F)F)c2)o1 [Compound 42, N-(3-((2R,5R)-6-amino-3,3,5-trifluoro-2,5-dimethyl-2,3,4,5-tetrahydropyridin-2-yl)-4-fluorophenyl)-2-methyloxazole-5-carboxamide trifluoroacetic acid salt]
- inhibition at 10 µM: 84%

Structure (SMILES): C[C@]1(F)CC(F)(F)[C@@](C)(c2cc(NC(=O)c3cnc(C(F)F)cn3)ccc2F)N=C1N [Compound 16, N-(3-((2R,5S)-6-amino-3,3,5-trifluoro-2,5-dimethyl-2,3,4,5-tetrahydropyridin-2-yl)-4-fluorophenyl)-5-(difluoromethyl)pyrazine-2-carboxamide]
- inhibition at 10 µM: 105%

Structure (SMILES): C[C@@]1(F)CC(F)(F)[C@@](C)(c2cc(NC(=O)c3ccc(Cl)cn3)ccc2F)N=C1N [Compound 33, N-(3-((2R,5R)-6-amino-3,3,5-trifluoro-2,5-dimethyl-2,3,4,5-tetrahydropyridin-2-yl)-4-fluorophenyl)-5-chloropicolinamide]
- inhibition at 10 µM: 103%

Structure (SMILES): Cn1cc(Br)nc1C(=O)Nc1ccc(F)c([C@@]2(C)N=C(N)[C@](C)(F)CC2(F)F)c1 [Compound 37, N-(3-((2R,5R)-6-amino-3,3,5-trifluoro-2,5-dimethyl-2,3,4,5-tetrahydropyridin-2-yl)-4-fluorophenyl)-4-bromo-1-methyl-1H-imidazole-2-carboxamide]
- inhibition at 10 µM: 104%

Structure (SMILES): C[C@]1(F)CC(F)(F)[C@@](C)(c2cc(NC(=O)c3ccc(Cl)cn3)ccc2F)N=C1N [Compound 3, N-(3-((2R,5S)-6-amino-3,3,5-trifluoro-2,5-dimethyl-2,3,4,5-tetrahydropyridin-2-yl)-4-fluorophenyl)-5-chloropicolinamide]
- inhibition at 10 µM: 102%

Structure (SMILES): Cn1ccc(C(=O)Nc2ccc(F)c([C@@]3(C)N=C(N)[C@](C)(F)CC3(F)F)c2)n1 [Compound 39, N-(3-((2R,5R)-6-amino-3,3,5-trifluoro-2,5-dimethyl-2,3,4,5-tetrahydropyridin-2-yl)-4-fluorophenyl)-1-methyl-1H-pyrazole-3-carboxamide]
- inhibition at 10 µM: 74%
